Results on six compounds are retold here after US8410026B2, “Pyridazine fungicides” (Syngenta Crop Protection LLC, priority 2008, dated 2013).

Where only a bound is given, the exact number is not on record here.

One data set has as its system Alternaria solani. Description: Alternaria solani / tomato / preventive (action against Alternaria on tomato). The following applies: preventive spray, tomato plants cv. Roter Gnom, inoculated 2 days after application, assessed after 4 days incubation, read-out: inhibit fungal infestation. The data set is classed as in vivo. The protocol: Alternaria solani/Tomato/Preventive (Action Against Alternaria on Tomato) 4 weeks old tomato plants cv. Roter Gnom are treated with the formulated test compound in a spray chamber. Two days after application tomato plants are inoculated by spraying a spore suspension on the test plants. After an incubation period of 4 days at 22° C./18° C. and 95% r. h. in a greenhouse the disease incidence is assessed.

Data set [1] concerns Botryotinia fuckeliana (Botrytis cinerea). As to the kind of experiment: Botryotinia fuckeliana (Botrytis cinerea) / tomato / preventive (action against Botrytis on tomato). The data set is classed as in vivo. The following applies: preventive spray, tomato plants cv. Roter Gnom, inoculated 2 days after application, assessed after 3 days incubation, read-out: inhibit fungal infestation. The protocol: Botryotinia fuckeliana (Botrytis cinerea)/Tomato/Preventive (Action Against Botrytis on Tomato) 4 weeks old tomato plants cv. Roter Gnom are treated with the formulated test compound in a spray chamber. Two days after application tomato plants are inoculated by spraying a spore suspension on the test plants. After an incubation period of 3 days at 20° C. and 95% r. h. in a greenhouse the disease incidence is assessed.

The subject of data set [2] is Uncinula necator (Erysiphe necator). As to the kind of experiment: Uncinula necator (Erysiphe necator) / grape / preventive (action against powdery mildew on grape). The settings on record: preventive spray, grape seedlings cv. Gutedel, inoculated 1 day after application, assessed after 7 days incubation, read-out: inhibit fungal infestation. In kind it is in vivo. The method, then:
Uncinula necator (Erysiphe necator)/Grape/Preventive (Action Against Powdery Mildew on Grape) 5 weeks old grape seedlings cv. Gutedel are treated with the formulated test compound in a spray chamber. One day after application grape plants are inoculated by shaking plants infected with grape powdery mildew above the test plants. After an incubation period of 7 days at 24° C./22° C. and 70% r. h. under a light regime of 14/10 h (light/dark) the disease incidence is assessed.

In data set [3] the test system is Mycosphaerella graminicola (Septoria tritici). Description: Mycosphaerella graminicola (Septoria tritici) / wheat / preventive (action against Septoria leaf spot on wheat). The data set is classed as in vivo. The settings on record: Zymoseptoria tritici, preventive spray, wheat plants cv. Riband, inoculated 1 day after application, assessed 16-18 days after inoculation, read-out: inhibits fungal infestation. The method, then: Mycosphaerella graminicola (Septoria tritici)/Wheat/Preventive (Action Against Septoria Leaf Spot on Wheat) 2 weeks old wheat plants cv. Riband are treated with the formulated test compound in a spray chamber. One day after application wheat plants are inoculated by spraying a spore suspension (10^6 conidia/ml) on the test plants. After an incubation period of 1 day at 22° C./21° C. and 95% r. h. plants are kept at 22° C./21° C. and 70% r.h. in a greenhouse. The disease incidence is assessed 16-18 days after inoculation.

In data set [4] the test system is Pyrenophora teres (Helminthosporium teres). Description: Pyrenophora teres (Helminthosporium teres) / barley / preventive (action against net blotch on barley). The data set is classed as in vivo. The settings on record: preventive spray, barley plants cv. Regina, inoculated 2 days after application, assessed after 4 days incubation, read-out: inhibit fungal infestation. The method, then:
Pyrenophora teres (Helminthosporium teres)/Barley/Preventive (Action Against Net Blotch on Barley) 1-week-old barley plants cv. Regina are treated with the formulated test compound in a spray chamber. Two days after application barley plants are inoculated by spraying a spore suspension (2.6×10^4 conidia/ml) on the test plants. After an incubation period of 4 days at 20° C. and 95% r. h. the disease incidence is assessed.

Data set [5] has as its system Puccinia recondite f. sp. tritici. As to the kind of experiment: Puccinia recondite f. sp. tritici / wheat / preventive (action against brown rust on wheat). The data set is classed as in vivo. The following applies: preventive spray, wheat plants cv. Arina, inoculated 1 day after application, assessed 11 days after inoculation, read-out: inhibit fungal infestation. The method, then: Puccinia recondite f. sp. tritici/Wheat/Preventive (Action Against Brown Rust on Wheat) 1 week old wheat plants cv. Arina are treated with the formulated test compound in a spray chamber. One day after application wheat plants are inoculated by spraying a spore suspension (1×105 uredospores/ml) on the test plants. After an incubation period of 1 day at 20° C. and 95% r. h. plants are kept for 10 days 20° C./18° C. (day/night) and 60% r. h. in a greenhouse. The disease incidence is assessed 11 days after inoculation.

The test system of data set [6] is Magnaporthe qrisea (Pyricularia oryzae). As to the kind of experiment: whole plant or invertebrate. In kind it is in vivo. The settings on record: read-out: inhibit fungal infestation.

Take `Cc1nnc(Cl)c(-c2c(F)cccc2Cl)c1-c1ccc(Cl)nc1` [I.a.02, 3-chloro-4-(2-chloro-6-fluoro-phenyl)-5-(6-chloro-pyridin-3-yl)-6-methyl-pyridazine]: the inhibition at 200 ppm (in the data set with Alternaria solani; in data set [1]; in data set [2]; in data set [3]; in data set [4]; in data set [5]) was ≥ 80% throughout. For the same compound, the inhibition at 200 ppm in data set [6] is ≥ 80%.

In the case of `COc1nnc(C)c(-c2ccc(Cl)nc2)c1-c1c(F)cc(F)cc1F` [I.a.12, 4-(6-chloro-pyridin-3-yl)-6-methoxy-3-methyl-5-(2,4,6-trifluoro-phenyl)-pyridazine], the melting point (usually the temperature of the solid-liquid transition) was in the range of 123 to 124 °C. For the same compound, the inhibition at 200 ppm in the data set on Alternaria solani was ≥ 80%. Moreover, the inhibition at 200 ppm in data set [1] was ≥ 80%. Further, the inhibition at 200 ppm in data set [2] was ≥ 80%. Further, the inhibition at 200 ppm in data set [4] was ≥ 80%. Besides, in data set [5], the inhibition at 200 ppm is ≥ 80%.

For the compound `CCc1nnc(Cl)c(-c2c(F)cc(F)cc2F)c1-c1ccc(Cl)nc1` [I.a.14, 3-chloro-5-(6-chloro-pyridin-3-yl)-6-ethyl-4-(2,4,6-trifluoro-phenyl)-pyridazine], the melting point lay within 125 to 126 °C. In addition, in the data set on Alternaria solani, the inhibition at 200 ppm is ≥ 80%. Also, the inhibition at 200 ppm in data set [2] is ≥ 80%. The inhibition at 200 ppm in data set [3] was ≥ 80%. Moreover, the inhibition at 200 ppm in data set [4] was ≥ 80%. In addition, the inhibition at 200 ppm in data set [5] was ≥ 80%. The inhibition at 200 ppm in data set [6] was ≥ 80%.

In turn, `CC(C)c1nnc(Cl)c(-c2c(F)cc(F)cc2F)c1-c1ccc(Cl)nc1` [I.a.17, 3-chloro-5-(6-chloro-pyridin-3-yl)-6-isopropyl-4-(2,4,6-trifluoro-phenyl)-pyridazine] registered a melting point of 146 to 149 °C.

The compound `COc1cc(F)c(-c2c(Cl)nnc(C)c2-c2ccc(Cl)nc2)c(F)c1` [I.a.20, 3-chloro-5-(6-chloro-pyridin-3-yl)-4-(2,6-difluoro-4-methoxy-phenyl)-6-methyl-pyridazine] displayed a melting point of 148 to 149 °C. In addition, the inhibition at 200 ppm in the data set with Alternaria solani was ≥ 80%. For the same compound, the inhibition at 200 ppm in data set [3] is ≥ 80%. Besides, the inhibition at 200 ppm in data set [4] is ≥ 80%. The inhibition at 200 ppm in data set [5] was ≥ 80%. For the same compound, the inhibition at 200 ppm in data set [6] was ≥ 80%.

Take `Cc1nnc(Cl)c(-c2c(F)cc(F)cc2F)c1-c1cnc(Cl)c(Cl)c1` [I.g.11, 3-chloro-5-(5,6-dichloro-pyridin-3-yl)-6-methyl-4-(2,4,6-trifluoro-phenyl)-pyridazine]: the melting point lay within 185 to 188 °C. The inhibition at 200 ppm in data set [2] is ≥ 80%. Besides, in data set [6], the inhibition at 200 ppm is ≥ 80%.
